Source: patent US11702417B2, “Compounds for improving mRNA splicing” (The General Hospital Corporation, priority 2015, dated 2023)
Read-outs that look alike come from different tables or passages of the source.

Tested on: FD (familial dysautomonia) IKBKAP minigene, exon 20 inclusion, in HEK293T cells
Assay: Primary splicing assay (FD IKBKAP minigene, Firefly/Renilla luciferase reporter in HEK293T)
Format: cell-based, human
Settings: for Emax / EC (maximum kinetin efficacy): Homo sapiens, HEK-293T; for EC (maximum kinetin efficacy): HEK293T, read-out: ECk (compound concentration at which the maximum kinetin efficacy (200 μM) is reached)
[1] = max efficacy in Primary Assay, Firefly/Renilla ratio, kinetin and DMSO as positive and negative controls, 24 hours of treatment, read-out: Emax (%)
[2] = Firefly/Renilla ratio, 24 hours of treatment

Compound: CC(=O)Oc1c[nH]c2nc(Cl)nc(NCc3ccco3)c12 [(252)]
- Emax [1]: 43%

Compound: CC(Nc1nc(Cl)nc2[nH]cnc12)c1nccs1 (stereo not shown) [(368)]
- Emax [1]: 2.4%

Compound: N#Cc1c[nH]c2nc(Cl)nc(NCc3ccco3)c12 [(145)]
- Emax [1]: 59%

Compound: Cn1cnc2c(NCc3nccs3)nc(Cl)nc21 [(301)]
- Emax [1]: 45%

Compound: Clc1nc(NCc2ccco2)c2nc(OCC3CCC3)[nH]c2n1 [(308)]
- EC (maximum kinetin efficacy) [2]: 0.15 µM
- Emax [1]: 310%

Compound: CC(=O)N1Cc2nc(Cl)nc(NCc3nccs3)c2C1 [(510)]
- Emax [1]: 20%

Compound: CC(C)(C)OC(=O)N1Cc2nc(Cl)nc(NCc3ccco3)c2C1 [(508)]
- Emax [1]: 80%

Compound: OCCn1cc(F)c2c(NCc3ccncn3)nc(Cl)nc21 [(138)]
- EC (maximum kinetin efficacy) [2]: 12.8 µM
- Emax [1]: 174%

Compound: c1csc(CNc2ncnc3[nH]cnc23)n1 [(16)]
- Emax [1]: 67%

Compound: Fc1ccccc1Nc1ncnc2[nH]cnc12 [(15)]
- EC (maximum kinetin efficacy) [2]: 158 µM

Compound: OCCn1ccc2c(NCc3ccco3)ncnc21 [(74)]
- Emax [1]: 64%

Compound: Cn1cnc2nc(Cl)nc(NCc3nccs3)c21 [(304)]
- EC (maximum kinetin efficacy) [2]: 4.14 µM
- Emax [1]: 166%

Compound: CNc1nc2c(NCc3ccco3)nc(Cl)nc2[nH]1 [(113)]
- EC (maximum kinetin efficacy) [2]: 5.17 µM
- Emax [1]: 132%

Compound: O=C(O)c1ccc(CNc2nc(Cl)nc3[nH]ccc23)cc1 [(106)]
- Emax [1]: 14%

Compound: Clc1cc(NCc2ccncn2)n2ccnc2n1 [(298)]
- Emax [1]: 21%

Compound: c1cc(CNc2ncnc3[nH]cnc23)ncn1 [(68)]
- Emax [1]: 62%

Compound: O=C(c1c[nH]c2nc(Cl)nc(NCc3ccco3)c12)N1CCCC1 [(168)]
- Emax [1]: 54%

Compound: CC(C)(C)OC(=O)N1CC(Oc2nc3c(NCc4ccncc4)nc(Cl)nc3[nH]2)C1 [(327)]
- EC (maximum kinetin efficacy) [2]: 4.64 µM
- Emax [1]: 145%

Compound: OCCn1ccc2c(NCc3ccco3)nc(Cl)nc21 [(77)]
- Emax (max efficacy, value marked (RT-PCR), footnote b: Renilla interference, read-out: Emax (%) (RT-PCR)): 321%
- ECk (RT-PCR) (determined by RT-PCR, footnote a Firefly inhibitor, footnote b Renilla interference): 1 to 10 µM

Compound: CCCOc1nc2nc(Cl)nc(NCc3ccncc3)c2n1C [(336)]
- Emax [1]: 20%

Compound: COCCCOc1nc2c(NCc3ccco3)nc(Cl)nc2[nH]1 [(296)]
- EC (maximum kinetin efficacy) [2]: 1.81 µM
- Emax [1]: 178%

Compound: Clc1nc(NCc2cscn2)c2nc[nH]c2n1 [(381)]
- Emax [1]: 63.4%

Compound: OCCn1ncc2c(NCc3ccncc3)nc(Cl)nc21 [(218)]
- EC (maximum kinetin efficacy) [2]: 21 µM
- Emax [1]: 154%

Compound: Clc1nc(NCc2ccncc2)c2c(Cl)c[nH]c2n1 [(207)]
- EC (maximum kinetin efficacy) [2]: 75.8 µM
- Emax [1]: 109%

Compound: Cc1cn(CCO)c2nc(Cl)nc(NCc3ccncc3)c12 [(121)]
- EC (maximum kinetin efficacy) [2]: 17.3 µM
- Emax [1]: 189%

Compound: Cc1cc2c(NCc3ccco3)nc(Cl)nc2[nH]1 [(115)]
- EC (maximum kinetin efficacy) [2]: 5.92 µM
- Emax [1]: 174%

Compound: OCCn1cnc2c(NCc3ccco3)cc(Cl)nc21 [(254)]
- EC (maximum kinetin efficacy) [2]: 13.2 µM
- Emax [1]: 145%

Compound: COc1nc2c(NCc3ccncn3)nc(Cl)nc2[nH]1 [(261)]
- EC (maximum kinetin efficacy) [2]: 2.62 µM
- Emax [1]: 143%

Compound: FC(F)COc1nc2c(NCc3cscn3)nc(Cl)nc2[nH]1 [(395)]
- EC (maximum kinetin efficacy) [2]: 1.8 µM
- Emax [1]: 180%

Compound: CC(=O)NCCOc1nc2c(NCc3nccs3)nc(Cl)nc2[nH]1 [(397)]
- Emax [1]: 26.3%

Compound: CCCOc1nc2c(NCc3ccncn3)nc(Cl)nc2[nH]1 [(317)]
- EC (maximum kinetin efficacy) [2]: 0.16 µM
- Emax [1]: 223%

Compound: COc1nc2c(NCc3cncs3)nc(Cl)nc2[nH]1 [(376)]
- Emax [1]: 23.5%

Compound: Fc1nc(NCc2nccs2)c2nc[nH]c2n1 [(367)]
- Emax [1]: 94%

Compound: CC(=O)NCCn1ccc2c(NCc3ccco3)nc(Cl)nc21 [(203)]
- Emax (max efficacy in Primary Assay, value flagged footnote a: Firefly inhibitor, read-out: Emax (%)): 27%

Compound: FCCn1cc(Cl)c2c(NCc3ccco3)nc(Cl)nc21 [(212)]
- Emax [1]: 71%

Compound: COc1nc2c(NCc3ccco3)nc(Cl)nc2n1CCO [(297)]
- EC (maximum kinetin efficacy) [2]: 4.09 µM
- Emax [1]: 150%

Compound: FC(F)(F)c1cccc(CNc2ncnc3[nH]cnc23)c1 [(10)]
- Emax [1]: 21%

Compound: Clc1nc2c(c(NCc3ccco3)n1)CCC2 [(466)]
- EC (maximum kinetin efficacy) [2]: 3.66 µM
- Emax [1]: 221%

Compound: Cc1ccccc1CNc1ncnc2[nH]cnc12 [(14)]
- Emax [1]: 53%

Compound: Clc1nc(NCc2nccs2)c2nc(OC[C@@H]3CCOC3)[nH]c2n1 [(473)]
- EC (maximum kinetin efficacy) [2]: 2.1 µM
- Emax [1]: 130%
